According to US20230089073A1 (Carmot Therapeutics, Inc., priority 2021, published 2023):

Biological target: T1, human GLP-1 receptor (Homo sapiens, UniProt P43220)
T1 construct: expressed in transfected cells
Experiment: GLP-1R cAMP Assay
Format: cell-based
Settings: cAMP accumulation in CHO cells stably overexpressing the human GLP-1 receptor; 30 min treatment; HitHunter cAMP kit; read-out: EC50
Outline: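 Luminescent enzyme-complementation detection of cAMP, read after cell lysis and overnight incubation, with dose-response curve fitting. Stimulation lasted 30 min, using 20-point triplicate dosing on CHO cells (10,000 per well) stably overexpressing human GLP-1R.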

T1 sequence (P43220 24-463): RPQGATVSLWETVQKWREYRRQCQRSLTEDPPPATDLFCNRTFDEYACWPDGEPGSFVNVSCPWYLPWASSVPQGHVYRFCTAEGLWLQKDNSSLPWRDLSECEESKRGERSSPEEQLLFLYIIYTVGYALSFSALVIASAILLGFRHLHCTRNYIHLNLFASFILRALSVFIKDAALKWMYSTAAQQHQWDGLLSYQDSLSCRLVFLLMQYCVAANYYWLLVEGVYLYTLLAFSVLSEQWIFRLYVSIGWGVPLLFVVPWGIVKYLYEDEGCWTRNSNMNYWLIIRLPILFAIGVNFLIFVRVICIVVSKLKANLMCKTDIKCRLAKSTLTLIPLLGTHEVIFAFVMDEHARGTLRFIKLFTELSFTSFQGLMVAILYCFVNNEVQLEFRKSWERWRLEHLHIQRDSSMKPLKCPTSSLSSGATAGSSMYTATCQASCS

`O=C(O)c1cc(F)c2nc(CN3CCC(Oc4ccnc(COc5ccc(F)cc5F)c4)CC3)n(C[C@@H]3CCO3)c2c1` [Compound 496, 2-{[4-({2-[(2,4-difluorophenoxy)methyl]pyridin-4-yl}oxy)piperidin-1-yl]methyl}-4-fluoro-1-{[(2S)-oxetan-2-yl]methyl}-1H-1,3-benzodiazole-6-carboxylic acid] showed an EC50 of less than 50 nM.

Molecule `N#Cc1cc(Cl)ccc1OCc1cc(OC2CCN(Cc3nc4ccc(C(=O)O)cc4n3Cc3cnco3)CC2)ccn1` [Compound 240, 2-{[4-({2-[(4-chloro-2-cyanophenoxy)methyl]pyridin-4-yl}oxy)piperidin-1-yl]methyl}-1-[(1,3-oxazol-5-yl)methyl]-1H-1,3-benzodiazole-6-carboxylic acid] has an EC50 of less than 50 nM.

`N#Cc1cc(F)ccc1OCc1nccc(OC2CCN(Cc3nc4ccc(C(=O)O)cc4n3C[C@@H]3CCO3)CC2)n1` [Compound 306] gave an EC50 of less than 50 nM.

Molecule `CCn1cncc1Cn1c(CN2CCC(Oc3cccc(COc4ccc(Cl)cc4F)n3)CC2)nc2ccc(C(=O)O)cc21` [Compound 247, 2-{[4-({6-[(4-chloro-2-fluorophenoxy)methyl]pyridin-2-yl}oxy)piperidin-1-yl]methyl}-1-[(1-ethyl-1H-imidazol-5-yl)methyl]-1H-1,3-benzodiazole-6-carboxylic acid] has an EC50 of less than 50 nM.

For `N#CCC1(Cn2c(CN3CCC(Oc4ccnc(COc5ccc(C#N)cc5F)n4)CC3)nc3ccc(C(=O)O)cc32)CC1` [Compound 331], the EC50 was less than 50 nM.

Molecule `O=C(O)c1ccc2nc(CN3CCN(Cc4ccc(COc5ccccc5)o4)CC3)n(C[C@@H]3CCO3)c2c1` [Example 20, (S)-1-(Oxetan-2-ylmethyl)-2-((4-((5-(phenoxymethyl)furan-2-yl)methyl)piperazin-1-yl)methyl)-1H-benzo[d]imidazole-6-carboxylic acid] has an EC50 greater than 500 nM.

For `C[C@H]1C[C@@H](Oc2nc(COc3ccc(F)cc3C#N)ncc2F)CCN1Cc1nc2ccc(C(=O)O)cc2n1C[C@@H]1CCO1` [Compound 492, 2-{[(2S,4S)-4-({2-[(2-cyano-4-fluorophenoxy)methyl]-5-fluoropyrimidin-4-yl}oxy)-2-methylpiperidin-1-yl]methyl}-1-{[(2S)-oxetan-2-yl]methyl}-1H-1,3-benzodiazole-6-carboxylic acid], the EC50 was less than 50 nM.

In the case of `Cc1ccc(N(C)c2cccc(C3(N4CCN(Cc5nc6ccc(C(=O)O)cc6n5C[C@@H]5CCO5)CC4)CC3)c2)c(Cl)c1` [Example 105, (S)-2-((4-(1-(3-((2-chloro-4-methylphenyl)(methyl)amino)phenyl)cyclopropyl)piperazin-1-yl)methyl)-1-(oxetan-2-ylmethyl)-1H-benzo[d]imidazole-6-carboxylic acid], the EC50 is reported as greater than 500 nM.

`Cc1ccc(N(C)c2cccc(S(=O)(=O)N3CCN(Cc4nc5ccc(C(=O)O)cc5n4C[C@@H]4CCO4)CC3)c2)c(Cl)c1` [Compound 86, 2-[(4-{3-[(2-chloro-4-methylphenyl)(methyl)amino]benzenesulfonyl}piperazin-1-yl)methyl]-1-{[(2S)-oxetan-2-yl]methyl}-1H-1,3-benzodiazole-6-carboxylic acid] showed an EC50 greater than 500 nM.

With `CCn1cncc1Cn1c(CN2CCC(Oc3ccccc3COc3ccc(Cl)cc3Cl)CC2)nc2ccc(C(=O)O)cc21` [Compound 272, 2-[(4-{2-[(2,4-dichlorophenoxy)methyl]phenoxy}piperidin-1-yl)methyl]-1-[(1-ethyl-1H-imidazol-5-yl)methyl]-1H-1,3-benzodiazole-6-carboxylic acid] the EC50 was 50 to 500 nM.

`Cc1ccc(Oc2cccc(C(=O)N3CCN(Cc4nc5ccc(C(=O)O)cc5n4C[C@@H]4CCO4)CC3)c2)c(C)c1` [Compound 18, 2-({4-[3-(2,4-dimethylphenoxy)benzoyl]piperazin-1-yl}methyl)-1-{[(2S)-oxetan-2-yl]methyl}-1H-1,3-benzodiazole-6-carboxylic acid] gave an EC50 of 50 to 500 nM.

Molecule `Cc1ccc(N(C)c2ccnc(C(=O)N3CCN(Cc4nc5ccc(C(=O)O)cc5n4C[C@@H]4CCO4)CC3)c2)c(Cl)c1` [Compound 88, 2-[(4-{4-[(2-chloro-4-methylphenyl)(methyl)amino]pyridine-2-carbonyl}piperazin-1-yl)methyl]-1-{[(2S)-oxetan-2-yl]methyl}-1H-1,3-benzodiazole-6-carboxylic acid] has an EC50 greater than 500 nM.

Work on `Cc1ccc(N(C)c2cc(C(=O)N3CCN(Cc4nc5ccc(C(=O)O)cc5n4C[C@@H]4CCO4)CC3)ccc2F)c(Cl)c1` [Example 95, (S)-2-((4-(3-((2-Chloro-4-methylphenyl)(methyl)amino)-4-fluorobenzoyl)piperazin-1-yl)methyl)-1-(oxetan-2-ylmethyl)-1H-benzo[d]imidazole-6-carboxylic acid] yielded an EC50 of 50 to 500 nM.

In the case of `O=C(O)c1ccc2nc(CN3CCC(Cc4cccc(COc5ccc(Cl)cc5Cl)c4)CC3)n(C[C@@H]3CCO3)c2c1` [Compound 103, 2-{[4-({3-[(2,4-dichlorophenoxy)methyl]phenyl}methyl)piperidin-1-yl]methyl}-1-{[(2S)-oxetan-2-yl]methyl}-1H-1,3-benzodiazole-6-carboxylic acid], the EC50 is reported as less than 50 nM.

Work on `Cc1ccc(N(C)c2cc(C(=O)N3CCN(Cc4nc5ccc(C(=O)O)cc5n4C[C@@H]4CCO4)CC3)ccn2)c(Cl)c1` [Example 99, (S)-2-((4-(2-((2-Chloro-4-methylphenyl)(methyl)amino)isonicotinoyl)piperazin-1-yl)methyl)-1-(oxetan-2-ylmethyl)-1H-benzo[d]imidazole-6-carboxylic acid] yielded an EC50 of 50 to 500 nM.

For `Cc1ccc(Cc2cccc(C(=O)N3CCN(Cc4nc5ccc(C(=O)O)cc5n4C[C@@H]4CCO4)CC3)c2)cc1` [Compound 33, 2-[(4-{3-[(4-methylphenyl)methyl]benzoyl}piperazin-1-yl)methyl]-1-{[(2S)-oxetan-2-yl]methyl}-1H-1,3-benzodiazole-6-carboxylic acid], the EC50 was greater than 500 nM.

With `CCn1cncc1Cn1c(CN2CCN(C(=O)c3cc(N(C)c4ccc(C)cc4Cl)ccc3C)CC2)nc2ccc(C(=O)O)cc21` [Compound 76, 2-[(4-{5-[(2-chloro-4-methylphenyl)(methyl)amino]-2-methylbenzoyl}piperazin-1-yl)methyl]-1-[(1-ethyl-1H-imidazol-5-yl)methyl]-1H-1,3-benzodiazole-6-carboxylic acid] the EC50 was less than 50 nM.

`CCn1cncc1Cn1c(CN2CCC(=Cc3ccnc(COc4ccc(Cl)cc4Cl)c3)CC2)nc2ccc(C(=O)O)cc21` [Example 155, 2-((4-((2-((2,4-Dichlorophenoxy)methyl)pyridin-4-yl)methylene)piperidin-1-yl)methyl)-1-((1-ethyl-1H-imidazol-5-yl)methyl)-1H-benzo[d]imidazole-6-carboxylic acid] was tested, and the EC50 was less than 50 nM.

For `CCn1cncc1Cn1c(CN2CCC(Oc3ccnc(COc4ccc(C#N)cc4F)n3)CC2)nc2ccc(C(=O)O)cc21` [Example 261, 2-((4-((2-((4-Cyano-2-fluorophenoxy)methyl)pyrimidin-4-yl)oxy)piperidin-1-yl)methyl)-1-((1-ethyl-1H-imidazol-5-yl)methyl)-1H-benzo[d]imidazole-6-carboxylic acid], the EC50 was less than 50 nM.

In the case of `CCn1cncc1Cn1c(CN2CCC(Cc3cccc(COc4ccc(F)cc4C#N)c3)CC2)nc2ccc(C(=O)O)cc21` [Compound 188, 2-{[4-({3-[(2-cyano-4-fluorophenoxy)methyl]phenyl}methyl)piperidin-1-yl]methyl}-1-[(1-ethyl-1H-imidazol-5-yl)methyl]-1H-1,3-benzodiazole-6-carboxylic acid], the EC50 is reported as less than 50 nM.

For `N#Cc1ccc(OCc2cccc(OC3CCN(Cc4nc5ccc(C(=O)O)nc5n4C[C@@H]4CCO4)CC3)n2)c(F)c1` [Example 372, (S)-2-((4-((6-((4-Cyano-2-fluorophenoxy)methyl)pyridin-2-yl)oxy)piperidin-1-yl)methyl)-3-(oxetan-2-ylmethyl)-3H-imidazo[4,5-b]pyridine-5-carboxylic acid], the EC50 was less than 50 nM.

`N#Cc1ccc(OCc2nccc(OC3CCN(Cc4nc5c(F)cc(C(=O)O)cc5n4CC4(CF)CC4)CC3)n2)c(F)c1` [Compound 314] showed an EC50 of less than 50 nM.

`CCn1cncc1Cn1c(CN2CCC(C(F)(F)c3cccc(COc4ccc(Cl)cc4Cl)c3)CC2)nc2ccc(C(=O)O)cc21` [Compound 161, 2-{[4-({3-[(2,4-dichlorophenoxy)methyl]phenyl}difluoromethyl)piperidin-1-yl]methyl}-1-[(1-ethyl-1H-imidazol-5-yl)methyl]-1H-1,3-benzodiazole-6-carboxylic acid] was tested, and the EC50 was less than 50 nM.

Work on `CCn1cncc1Cn1c(CN2CCC(C)(Cc3ccnc(COc4ccc(Cl)cc4Cl)c3)CC2)nc2ccc(C(=O)O)cc21` [Example 163, 2-((4-((2-((2,4-Dichlorophenoxy)methyl)pyridin-4-yl)methyl)-4-methylpiperidin-1-yl)methyl)-1-((1-ethyl-1H-imidazol-5-yl)methyl)-1H-benzo[d]imidazole-6-carboxylic acid] yielded an EC50 of less than 50 nM.

Work on `O=C(O)c1ccc2nc(CN3CCN(C(=O)c4ccc(COc5ccc(Cl)cc5)o4)CC3)n(C[C@@H]3CCO3)c2c1` [Compound 31, 2-[(4-{5-[(4-chlorophenoxy)methyl]furan-2-carbonyl}piperazin-1-yl)methyl]-1-{[(2S)-oxetan-2-yl]methyl}-1H-1,3-benzodiazole-6-carboxylic acid] yielded an EC50 greater than 500 nM.

`Cc1ccc(Oc2cccc(C(=O)N3CCN(Cc4nc5ccc(C(=O)O)cc5n4C[C@@H]4CCO4)CC3)c2)c(Cl)c1` [Compound 15, 2-({4-[3-(2-chloro-4-methylphenoxy)benzoyl]piperazin-1-yl}methyl)-1-{[(2S)-oxetan-2-yl]methyl}-1H-1,3-benzodiazole-6-carboxylic acid] showed an EC50 of 50 to 500 nM.

Molecule `N#Cc1ccc(OCc2nccc(O[C@@H]3C[C@H]4CC[C@@H](C3)N4Cc3nc4ccc(C(=O)O)cc4n3C[C@@H]3CCO3)n2)c(F)c1` [Compound 487, 2-{[(1R,3S,5S)-3-({2-[(4-cyano-2-fluorophenoxy)methyl]pyrimidin-4-yl}oxy)-8-azabicyclo[3.2.1]octan-8-yl]methyl}-1-{[(2S)-oxetan-2-yl]methyl}-1H-1,3-benzodiazole-6-carboxylic acid] has an EC50 of 50 to 500 nM.

`COCCn1c(CN2CCC(Oc3ccnc(COc4ccc(Cl)cc4F)c3)CC2)nc2c(F)cc(C(=O)O)cc21` [Compound 344] gave an EC50 of less than 50 nM.
